Target: T1, Human Recombinant Matriptase 2 (Homo sapiens, UniProt Q8IU80)
T1 construct: made in house
T1 sequence (Q8IU80 1-811): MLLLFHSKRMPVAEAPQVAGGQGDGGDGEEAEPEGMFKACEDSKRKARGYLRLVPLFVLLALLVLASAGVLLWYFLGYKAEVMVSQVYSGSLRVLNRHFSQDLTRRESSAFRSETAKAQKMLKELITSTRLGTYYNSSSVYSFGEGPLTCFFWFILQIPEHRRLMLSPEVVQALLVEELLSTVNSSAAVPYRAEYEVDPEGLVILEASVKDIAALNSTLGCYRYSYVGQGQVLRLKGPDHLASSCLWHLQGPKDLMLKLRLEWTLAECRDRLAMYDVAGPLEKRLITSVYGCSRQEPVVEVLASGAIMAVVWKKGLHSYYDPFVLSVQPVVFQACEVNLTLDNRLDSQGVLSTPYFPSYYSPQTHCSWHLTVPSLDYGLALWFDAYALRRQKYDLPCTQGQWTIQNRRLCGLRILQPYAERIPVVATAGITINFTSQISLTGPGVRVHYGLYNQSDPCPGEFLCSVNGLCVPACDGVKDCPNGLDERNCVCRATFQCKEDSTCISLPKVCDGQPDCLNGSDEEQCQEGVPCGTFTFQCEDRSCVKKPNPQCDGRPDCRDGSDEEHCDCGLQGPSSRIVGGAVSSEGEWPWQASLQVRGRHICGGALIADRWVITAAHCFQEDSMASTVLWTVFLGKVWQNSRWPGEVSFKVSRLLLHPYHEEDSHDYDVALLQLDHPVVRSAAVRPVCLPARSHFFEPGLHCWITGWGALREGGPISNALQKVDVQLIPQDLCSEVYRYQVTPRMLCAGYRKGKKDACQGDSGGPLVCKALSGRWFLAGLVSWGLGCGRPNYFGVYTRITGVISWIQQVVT
Test: Matriptase 2 inhibition, fluorescence based assay (Method I)
Format: biochemical
Settings: Table A; Ki of Matriptase-2; read-out: Mat-2 Ki
Procedure, shortened: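 Fluorogenic readout (Ex 360/Em 480 nm) taken 60 min after adding 62 μM Boc-Gln-Ala-Arg-AMC, following 30-min enzyme–compound preincubation at 25 °C. Conditions: 3.5 nM in-house enzyme, pH 7.5 Tris/NaCl/gelatin buffer, 1% DMSO; percent inhibition versus concentration fitted by variable-slope sigmoidal regression.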

Q: With `NCc1ccc2cc(C(=O)OC[C@H]3CCCN3)n(Cc3cc(NS(=O)(=O)Cc4ccccc4)cc4ccccc34)c2n1` (racemic) [Compound 108, rac-[(2R)-pyrrolidin-2-yl]methyl 6-(aminometh-yl)-1-{[3-(phenylmeth-anesulfonamido)naph-thalen-1-yl]methyl}-1H-pyrrolo[2,3-b]pyridine-2-carboxylate] as the compound, how does the Ki read?
A: Its Ki is 100 to 500 nM.

Q: `NCc1ccc2cc(C(=O)OCC3CCN(C=O)CC3)n(Cc3cc(NS(=O)(=O)Cc4ccsc4)cc4ccccc34)c2n1` [Compound 164, (1-formylpiperidin-4-yl)methyl 6-(aminometh-yl)-1-({3-[(thiophen-3-yl)methanesulfonamido]-naphthalen-1-yl}methyl)-1H-pyrrolo[2,3-b]pyr-idine-2-carboxylate] was tested. Which Ki did it give?
A: The Ki was ≤ 100 nM.

Q: For `NCc1ccc2cc(C(=O)OCC3CCOCC3)n(Cc3cc(NS(=O)(=O)Cc4ccsc4)cc4ccccc34)c2n1` [Compound 176, (oxan-4-yl)methyl 6-(aminomethyl)-1-({3-[(thiophen-3-yl)methane-sulfonamido]naphthalen-1-yl}methyl)-1H-pyr-rolo[2,3-b]pyridine-2-carboxylate], which Ki is on record?
A: The Ki was ≤ 100 nM.

Q: For `NCc1ccc2cc(C(=O)OCCCCN3CCOCC3)n(Cc3cc(NS(=O)(=O)Cc4ccccc4)cc4ccccc34)c2n1` [Compound 7, 4-morpholinobutyl 6-(aminomethyl)-1-((3-((phenylmethyl)sulfonamido)naphthalen-1-yl)methyl)-1H-pyrrolo[2,3-b]pyridine-2-carboxylate], which Ki is on record?
A: Its Ki is ≤ 100 nM.

Q: Which Ki does the source give for `NCc1ccc2cc(C(=O)OC[C@H]3CCCCN3)n(Cc3cc(NS(=O)(=O)Cc4ccccc4)cc4ccccc34)c2n1` [Compound 72, [(2R)-piperidin-2-yl]-methyl 6-(aminomethyl)-1-{[3-(phenylmethane-sulfonamido)naphthalen-1-yl]methyl}-1H-pyr-rolo[2,3-b]pyridine-2-carboxylate] here?
A: The Ki was ≤ 100 nM.

Q: How did the Ki turn out when `NCc1ccc2cc(C(=O)OCCS(N)(=O)=O)n(Cc3cc(NS(=O)(=O)Cc4ccccc4)cc4ccccc34)c2n1` [Compound 84, 2-sulfamoylethyl 6-(aminomethyl)-1-{[3-(phenylmethanesulfon-amido)naphthalen-1-yl]-methyl}-1H-pyrrolo[2,3-b]pyridine-2-carboxylate] was run?
A: The Ki was 100 to 500 nM.

Q: Which Ki does the source give for `Cc1cccc(C)c1CS(=O)(=O)Nc1cc(Cn2c(C(=O)OCc3cncn3C)cc3ccc(CN)nc32)c2ccccc2c1` [Compound 187, (1-methyl-1H-imidazol-5-yl)methyl 6-(amino-methyl)-1-({3-[(2,6-dimethylphenyl)methane-sulfonamido]naphthalen-1-yl}methyl)-1H-pyr-rolo[2,3-b]pyridine-2-carboxylate] here?
A: The Ki was ≤ 100 nM.

Q: `CNCCOC(=O)c1cc2ccc(CN)nc2n1Cc1cc(NS(=O)(=O)Cc2ccsc2)cc2ccccc12` [Compound 175, 2-(methylamino)ethyl 6-(aminomethyl)-1-({3-[(thiophen-3-yl)methane-sulfonamido]naphthalen-1-yl}methyl)-1H-pyr-rolo[2,3-b]pyridine-2-carboxylate] was tested. Which Ki did it give?
A: The Ki was ≤ 100 nM.

Q: `CC(C)n1cnc(COC(=O)c2cc3ccc(CN)nc3n2Cc2cc(NS(=O)(=O)Cc3ccccc3)cc3ccccc23)c1` [Compound 87, [1-(propan-2-yl)-1H-imidazol-4-yl]methyl 6-(aminomethyl)-1-{[3-(phenylmethanesulfon-amido)naphthalen-1-yl]-methyl}-1H-pyrrolo[2,3-b]pyridine-2-carboxylate] was tested. Which Ki did it give?
A: Its Ki is 100 to 500 nM.

Q: `CN1CCC[C@H](OC(=O)c2cc3ccc(CN)nc3n2Cc2cc(NS(=O)(=O)Cc3ccccc3)cc3ccccc23)C1` (racemic) [Compound 99, 1-methylpiperidin-3-yl 6-(aminomethyl)-1-{[3-(phenylmethanesulfon-amido)naphthalen-1-yl]-methyl}-1H-pyrrolo[2,3-b]pyridine-2-carboxylate] was tested. Which Ki did it give?
A: The Ki was 100 to 500 nM.

Same assay, conditions: Table A; Ki of Matriptase-2 given as class symbols; read-out: Mat-2 Ki

Q: `NCc1ccc2cc(C(=O)O)n(Cc3cc(NS(=O)(=O)CCC4CCNCC4)cc4ccccc34)c2n1` [Compound 223, 6-(aminomethyl)-1-({3-[2-(piperidin-4-yl)-ethanesulfonamido]-naphthalen-1-yl}meth-yl)-1H-pyrrolo[2,3-b]-pyridine-2-carboxylic acid] was tested. Which Ki did it give?
A: The Ki was 100 to 500 nM.

Q: `NCc1ccc2cc(C(=O)O)n(Cc3cc(NS(=O)(=O)CC4CNCCO4)cc4ccccc34)c2n1` (racemic) [Compound 224, 6-(aminomethyl)-1-({3-[(morpholin-2-yl)-methanesulfonamido]-naphthalen-1-yl}meth-yl)-1H-pyrrolo[2,3-b]-pyridine-2-carboxylic acid] was tested. Which Ki did it give?
A: Its Ki is 100 to 500 nM.

Q: Which Ki does the source give for `NCc1ccc2cc(C(=O)O)n(Cc3cc(NS(=O)(=O)Cc4cncnc4)cc4ccccc34)c2n1` [Compound 231, 6-(aminomethyl)-1-({3-[(pyrimidin-5-yl)methane-sulfonamido]naphthalen-1-yl}methyl)-1H-pyr-rolo[2,3-b]pyridine-2-carboxylic acid] here?
A: The Ki was 100 to 500 nM.

Q: How did the Ki turn out when `CN1CCC(c2nnc(-c3cc4ccc(CN)nc4n3Cc3cc(NS(=O)(=O)Cc4ccccc4)cc4ccccc34)o2)CC1` [Compound 345, N-(4-((6-(aminomethyl)-2-(5-(1-methylpiperidin-4-yl)-1,3,4-oxadiazol-2-yl)-1H-pyrrolo[2,3-b]pyridin-1-yl)methyl)naphthalen-2-yl)-1-phenylmethanesulfonamide] was run?
A: The Ki was ≤ 100 nM.

Q: Which Ki does the source give for `NCc1ccc2cc(C(=O)O)n(Cc3cc(NC(=O)N4CCC(C(F)(F)F)CC4)cc4ccccc34)c2n1` [Compound 298, 6-(aminomethyl)-1-[(3-{[4-(trifluoromethyl)-piperidine-1-carbonyl]-amino}naphthalen-1-yl)-methyl]-1H-pyrrolo[2,3-b]pyridine-2-carboxylic acid] here?
A: Its Ki is 500 to 3000 nM.

Q: With `NCc1ccc2cc(C(=O)O)n(Cc3cc(NS(=O)(=O)Cc4cscn4)cc4ccccc34)c2n1` [Compound 239, 6-(aminomethyl)-1-({3-[(1,3-thiazol-4-yl)meth-anesulfonamido]naph-thalen-1-yl}methyl)-1H-pyrrolo[2,3-b]pyridine-2-carboxylic acid] as the compound, how does the Ki read?
A: Its Ki is 100 to 500 nM.

Q: How did the Ki turn out when `NCc1ccc2cc(-c3ccn[nH]3)n(Cc3cc(NS(=O)(=O)Cc4ccccc4)cc4ccccc34)c2n1` [Compound 351] was run?
A: Its Ki is ≤ 100 nM.

Q: Which Ki does the source give for `COCCN1CCN(CCS(=O)(=O)Nc2cc(Cn3c(C(=O)O)cc4ccc(CN)nc43)c3ccccc3c2)CC1` [Compound 234, 6-(aminomethyl)-1-[(3-{2-[4-(2-methoxyethyl)-piperazin-1-yl]ethane-sulfonamido}naphthalen-1-yl)methyl]-1H-pyr-rolo[2,3-b]pyridine-2-carboxylic acid] here?
A: Its Ki is 100 to 500 nM.

Q: For `NCc1ccc2cc(C(=O)O)n(Cc3cc(NS(=O)(=O)CC[C@H]4CCCN4)cc4ccccc34)c2n1` [Compound 217, 6-(aminomethyl)-1-[(3-{2-[(2R)-pyrrolidin-2-yl]ethanesulfonamido}-naphthalen-1-yl)methyl]-1H-pyrrolo[2,3-b]pyr-idine-2-carboxylic acid], which Ki is on record?
A: Its Ki is 100 to 500 nM.

Q: Which Ki does the source give for `COCCN1CCN(CCS(=O)(=O)Nc2cc(Cn3c(C(=O)O)cc4ccc(CN)cc43)c3ccccc3c2)CC1` [Compound 388, 6-(aminomethyl)-1-[(3-{2-[4-(2-methoxyethyl)-piperazin-1-yl]ethanesul-fonamido}naphthalen-1-yl)methyl]-1H-indole-2-carboxylic acid] here?
A: The Ki was 100 to 500 nM.

Q: For `NCc1ccc2cc(C(=O)O)n(Cc3cc(NS(=O)(=O)Cc4ccccc4)cc4ccccc34)c2c1` [Compound 370, 6-(aminomethyl)-1-((3-((phenylmethyl)sulfonamido)naphthalen-1-yl)methyl)-1H-indole-2-carboxylic acid], which Ki is on record?
A: The Ki was ≤ 100 nM.

Q: `CC(C)(C)OC(=O)N1CCC(CCS(=O)(=O)Nc2cc(Cn3c(C(=O)O)cc4ccc(CN)nc43)c3ccccc3c2)CC1` [Compound 274, 6-(aminomethyl)-1-{[3-(2-{1-[(tert-butoxy)car-bonyl]piperidin-4-yl}-ethanesulfonamido)naph-thalen-1-yl]methyl}-1H-pyrrolo[2,3-b]pyridine-2-carboxylic acid] was tested. Which Ki did it give?
A: Its Ki is 500 to 3000 nM.

Q: For `NCc1ccc2cc(-c3nnc(N)o3)n(Cc3cc(NS(=O)(=O)Cc4ccccc4)cc4ccccc34)c2n1` [Compound 348, N-(4-{[2-(5-amino-1,3,4-oxadiazol-2-yl)-6-(amino-methyl)-1H-pyrrolo[2,3-b]pyridin-1-yl]methyl}-naphthalen-2-yl)-1-phen-ylmethanesulfonamide], which Ki is on record?
A: Its Ki is ≤ 100 nM.

Same assay, conditions: Table B; Human Recombinant Matriptase 2, 3.5 nM enzyme, 62 μM substrate, 30 mins preincubation; read-out: Mean Ki

Q: Which Ki does the source give for `CN1CCC(COC(=O)c2cc3ccc(CN)nc3n2Cc2cccc(NS(=O)(=O)Cc3ccccc3)c2)CC1` [Compound 2.48] here?
A: The Ki was 100 to 500 nM.

Q: Which Ki does the source give for `CN(C)C12CC(COC(=O)c3cc4ccc(CN)nc4n3Cc3cc(NS(=O)(=O)Cc4ccccc4)cc4ccccc34)(C1)C2` [Compound 2.40] here?
A: The Ki was ≤ 100 nM.

Q: With `CN1CCC(CCOC(=O)c2cc3ccc(CN)nc3n2Cc2cc(NS(=O)(=O)Cc3ccccc3)c3ccccc3c2)CC1` [Compound 2.12] as the compound, how does the Ki read?
A: Its Ki is 100 to 500 nM.

Reference: patent US20240400553A1, “AMINE BASED MATRIPTASE 2 INHIBITORS AND USES THEREOF” (Disc Medicine, Inc., priority 2023, published 2024)
